Some test systems named below: HL-60(TB) leukemia; HT29 colon; MDA-N; HS 578T breast; OVCAR-4 ovarian; SK-OV-3 ovarian.
Experiment in all cases: growth of human tumour cells (NCI), 48 h

SMILES strings stand for the structures. Several values for one entry are separate records, joined by “and”; a condition that tells them apart may be missing. Identical values can stand only once.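 48-hour exposure; five concentrations; linearly interpolated endpoints. At the GI50, growth is halved. TGI is the concentration that stops growth completely.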

In the case of `O=C(O)C(Cc1ccccc1)NCc1c(O)ccc2c(-c3ccccc3)cc(=O)oc12` (stereo unspecified), the TGI with HL-60(TB) leukemia, with HT29 colon, with MDA-N, in the assay on HS 578T breast, with OVCAR-4 ovarian and in the assay with SK-OV-3 ovarian was greater than 100 µM in each case.
On to `C=C(C)C1CC(=O)C(C)=C(O)C1` (stereo unspecified), for which the TGI in the assay on HL-60(TB) leukemia, with HT29 colon, in the assay on MDA-N, in the assay on HS 578T breast, in the assay with OVCAR-4 ovarian and with SK-OV-3 ovarian was greater than 100 µM throughout.
Turning to `Cc1nc(NC(C)(CO)CO)nc(N/N=C/c2ccc(Cl)cc2)c1C(=O)Nc1ccc(Cl)cc1`, the TGI in the assay on HL-60(TB) leukemia, with HT29 colon, in the assay with MDA-N, in the assay on HS 578T breast, in the assay on OVCAR-4 ovarian and in the assay with SK-OV-3 ovarian was greater than 100 µM in each case.
Turning to `O=C(Nc1ccccc1)N1CCN(C(=O)Nc2ccccc2)C1=S`, the TGI in the assay on HL-60(TB) leukemia is greater than 100 µM; with HT29 colon it was greater than 100 µM; in the assay on MDA-N, greater than 100 µM; in the assay with HS 578T breast it was greater than 100 µM; in the assay with OVCAR-4 ovarian, greater than 100 µM; in the assay on SK-OV-3 ovarian it was 76.3 µM.
`CC(C)(C)C(=O)Nc1c(C=O)ccc2[nH]cnc12`: the TGI in the assay on MDA-N, in the assay on OVCAR-4 ovarian and with SK-OV-3 ovarian was greater than 100 µM throughout.
As to `COC(=O)c1sc(=O)sc1SCc1cccc(CSc2sc(=O)sc2C(=O)OC)c1`, the TGI with HT29 colon was greater than 100 µM; with MDA-N, greater than 100 µM; in the assay on HS 578T breast, greater than 100 µM; with OVCAR-4 ovarian, 37.7 µM; with SK-OV-3 ovarian, 51.4 µM.
In the case of `C[n+]1cccc2ccc3cccnc3c21`, the TGI in the assay with HL-60(TB) leukemia was greater than 100 µM; with HT29 colon, greater than 100 µM; in the assay with MDA-N, greater than 100 µM; in the assay on HS 578T breast it was 64.3 µM; in the assay with OVCAR-4 ovarian, greater than 100 µM; in the assay with SK-OV-3 ovarian, greater than 100 µM.
Turning to `CCC1(O)CC(CCN(Cc2ccccc2)C(=O)OCc2ccccc2)C(OCc2ccccc2)C1O` (stereo unspecified), the TGI worked out at 31 µM in the assay on HT29 colon, 98.8 µM in the assay with MDA-N, 22 µM in the assay on OVCAR-4 ovarian and 34.6 µM in the assay on SK-OV-3 ovarian.
Consider `COc1cccc2c1C(=O)c1c(O)c3c(c(O)c1C2=O)C[C@@](O)(C(C)=O)CC3OC1CC(OC2CC(N)C(O)C(C)O2)C(O)C(C)O1` (stereo partly specified), for which the TGI is 34.8 µM in the assay on HL-60(TB) leukemia; greater than 100 µM with HT29 colon; greater than 100 µM in the assay on MDA-N; greater than 100 µM in the assay on HS 578T breast; greater than 100 µM in the assay with OVCAR-4 ovarian; greater than 100 µM in the assay on SK-OV-3 ovarian.
Consider `COC(=O)C1OC(O[C@H]2CC[C@]3(C)[C@H]4CC=C5[C@@H]6CC(C)(C)CC[C@]6(C(=O)OC6OCC(O)C(O)C6OC6OC(C)C(OC7OCC(O)C(O)C7O)C(O)C6O)[C@H](O)C[C@@]5(C)[C@]4(C)CC[C@H]3C2(C)C)C(O)C(O)C1O` (stereo partly specified), for which the TGI with HL-60(TB) leukemia was 5.28 µM and 6.62 µM; in the assay on HT29 colon it was 9.7 µM and 15.3 µM; in the assay with MDA-N, 3.77 µM and 12.1 µM; with HS 578T breast, 35.9 µM and 35.2 µM; in the assay with OVCAR-4 ovarian, 6.7 µM and 16.5 µM; in the assay on SK-OV-3 ovarian, 23.5 µM and 26.3 µM. Further, the GI50 in the assay with OVCAR-4 ovarian is 0.927 µM and 4.32 µM.
On to `CC(=O)CC1(CBr)Nc2ccc([N+](=O)[O-])cc2NC1=O` (stereo unspecified), for which the TGI with HT29 colon, in the assay with MDA-N, in the assay on OVCAR-4 ovarian and with SK-OV-3 ovarian was greater than 100 µM each time.
In the case of `CC(C)(C)C1CCC2c3c([nH]c4ccccc34)C3C(=O)N(c4ccc([N+](=O)[O-])cc4)C(=O)C3C2C1` (stereo unspecified), the TGI is 34.7 µM in the assay with HL-60(TB) leukemia; 19.2 µM with HT29 colon; greater than 100 µM with MDA-N; 39.3 µM in the assay with HS 578T breast; 71.9 µM in the assay with OVCAR-4 ovarian; 73.9 µM in the assay with SK-OV-3 ovarian.
As for `CCN(CC)C(=S)SC(C(=O)Nc1nnc(-c2ccc(Cl)cc2)o1)c1ccccc1` (stereo unspecified), the TGI in the assay on HL-60(TB) leukemia is greater than 100 µM; in the assay with HT29 colon, 16.9 µM; in the assay with MDA-N, 50.3 µM; with HS 578T breast it was greater than 100 µM; in the assay on OVCAR-4 ovarian, 18.6 µM; with SK-OV-3 ovarian it was 31.4 µM.
In the case of `N#CCCC(C=O)(CCC#N)CCC#N`, the TGI in the assay on HL-60(TB) leukemia, in the assay with HT29 colon, with MDA-N, in the assay on HS 578T breast, in the assay with OVCAR-4 ovarian and in the assay with SK-OV-3 ovarian was greater than 100 µM each time.
With `O=c1c2cc(Br)cc(Br)c2[nH]c(=S)n1-c1ccc(N=Nc2ccc(O)c3cccnc23)cc1`, the TGI in the assay with HL-60(TB) leukemia, in the assay with HT29 colon, in the assay on MDA-N, in the assay on HS 578T breast, with OVCAR-4 ovarian and with SK-OV-3 ovarian was greater than 100 µM in each case.
As for `O=[N+]([O-])c1ccc(-n2nc3ccc4nonc4c3n2)cc1`, the TGI is greater than 100 µM with HL-60(TB) leukemia; greater than 100 µM in the assay on HT29 colon; greater than 100 µM with MDA-N; 50.1 µM with HS 578T breast; 47 µM with OVCAR-4 ovarian; 56.5 µM with SK-OV-3 ovarian.
With `COC(=O)c1c2c(cc3c1CC1(Cc4cc5c(c(C=O)c4C1)CCC5)C3)CCC2` (stereo unspecified), the TGI in the assay with HL-60(TB) leukemia is 51.5 µM; in the assay on HT29 colon, 79.2 µM; with MDA-N, greater than 100 µM; with HS 578T breast it was greater than 100 µM; with OVCAR-4 ovarian it was greater than 100 µM; with SK-OV-3 ovarian, greater than 100 µM.
On to `COC(=O)[C@]1(c2cc3ccccc3n2S(=O)(=O)c2ccccc2)CC2CN(C(=O)OCc3ccccc3)C1C1OC(C)(C)OC21` (stereo partly specified), for which the TGI in the assay on HL-60(TB) leukemia, in the assay on HT29 colon, with MDA-N, in the assay on HS 578T breast, with OVCAR-4 ovarian and with SK-OV-3 ovarian was greater than 100 µM each time.
Take `Oc1ccc(C(O)C2CCCCN2)cc1O` (stereo unspecified): the TGI in the assay with HT29 colon, with MDA-N, in the assay with HS 578T breast, in the assay on OVCAR-4 ovarian and in the assay on SK-OV-3 ovarian was greater than 100 µM in each case.
For `O=C1c2ccccc2-c2nc3ccncc3n21`, the TGI in the assay with HL-60(TB) leukemia, with HT29 colon, in the assay with MDA-N, in the assay with OVCAR-4 ovarian and in the assay with SK-OV-3 ovarian was greater than 100 µM in each case.
